# From patent US20260262643A1, “HERBICIDAL BENZOXAZINES” (FMC CORPORATION, priority 2022, published 2026)
# Where two headings read alike, the source gives them in different places.
# Columns and labels:
# blackgrass [1] = assay: Test A preemergence; format: in vivo, Alopecurus myosuroides; details: Alopecurus myosuroides, pre-emergence, 240 h, read-out: Plant response rating, Blackgrass; for pest or weed control at 125 g/ha: 125 g ai/ha, visual injury after 10 days, 0 to 100 scale, 0 is no effect, 100 is complete control; for pest or weed control at 500 g/ha: 500 g ai/ha, 0 to 100 scale (0 no effect, 100 complete control), 10 days
# In short: (§1)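 Visual injury ratings on a 0–100 scale (100 = complete control) versus untreated controls, taken 10 days after treatment in greenhouse. Preemergence: directed soil spray onto seeded loam/sand. Postemergence: foliar application at one- to two-leaf stage, plants 2–10 cm. Formulation: non-phytotoxic solvent plus surfactant.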
# goosegrass [2] = assay: Test A preemergence; format: in vivo, Eleusine indica; details: Eleusine indica, pre-emergence, 240 h, read-out: Plant response rating, Goosegrass; for pest or weed control at 125 g/ha: 125 g ai/ha, visual injury after 10 days, 0 to 100 scale, 0 is no effect, 100 is complete control; for pest or weed control at 500 g/ha: 500 g ai/ha, 0 to 100 scale (0 no effect, 100 complete control), 10 days
# In short: as §1
# kochia = assay: Test A preemergence; format: in vivo, Bassia scoparia; details: Bassia scoparia, pre-emergence, 240 h, read-out: Plant response rating, Kochia; for pest or weed control at 125 g/ha: 125 g ai/ha, visual injury after 10 days, 0 to 100 scale, 0 is no effect, 100 is complete control; for pest or weed control at 500 g/ha: 500 g ai/ha, 0 to 100 scale (0 no effect, 100 complete control), 10 days
# In short: as §1
# pigweed, palmer [3] = assay: Test A preemergence; format: in vivo, Amaranthus palmeri; details: Amaranthus palmeri, pre-emergence, 240 h, read-out: Plant response rating, Pigweed, Palmer; for pest or weed control at 125 g/ha: 125 g ai/ha, visual injury after 10 days, 0 to 100 scale, 0 is no effect, 100 is complete control; for pest or weed control at 500 g/ha: 500 g ai/ha, 0 to 100 scale (0 no effect, 100 complete control), 10 days
# In short: as §1
# ryegrass, Italian = assay: Test A preemergence; format: in vivo, Lolium multiflorum; details: Lolium multiflorum, pre-emergence, 240 h, read-out: Plant response rating, Ryegrass, Italian; for pest or weed control at 125 g/ha: 125 g ai/ha, visual injury after 10 days, 0 to 100 scale, 0 is no effect, 100 is complete control; for pest or weed control at 500 g/ha: 500 g ai/ha, 0 to 100 scale (0 no effect, 100 complete control), 10 days
# In short: as §1
# soybean = assay: Test A preemergence; format: in vivo, Glycine max; details: Glycine max, pre-emergence, 240 h, read-out: Plant response rating, Soybean; for plant injury at 125 g/ha: 125 g ai/ha, visual injury after 10 days, 0 to 100 scale, 0 is no effect, 100 is complete control; for plant injury at 500 g/ha: 500 g ai/ha, 0 to 100 scale (0 no effect, 100 complete control), 10 days
# In short: as §1
# blackgrass [4] = assay: Test A postemergence; format: in vivo, Alopecurus myosuroides; details: Alopecurus myosuroides, post-emergence, 240 h, read-out: Plant response rating, Blackgrass; for pest or weed control at 125 g/ha: 125 g ai/ha, postemergence, 10 days, visual injury, 0 to 100 scale (0 no effect, 100 complete control); for pest or weed control at 500 g/ha: 500 g ai/ha, Postemergence, 0 to 100 scale
# In short: as §1
# goosegrass [5] = assay: Test A postemergence; format: in vivo, Eleusine indica; details: Eleusine indica, post-emergence, 240 h, read-out: Plant response rating, Goosegrass; for pest or weed control at 125 g/ha: 125 g ai/ha; for pest or weed control at 500 g/ha: 500 g ai/ha
# In short: as §1
# oat, wild = assay: Test A postemergence; format: in vivo, Avena fatua; details: Avena fatua, post-emergence, 240 h, read-out: Plant response rating, Oat, Wild; for pest or weed control at 125 g/ha: 125 g ai/ha; for pest or weed control at 500 g/ha: 500 g ai/ha
# In short: as §1
# pigweed, palmer [6] = assay: Test A postemergence; format: in vivo, Amaranthus palmeri; details: Amaranthus palmeri, post-emergence, 240 h, read-out: Plant response rating, Pigweed, Palmer; for pest or weed control at 125 g/ha: 125 g ai/ha; for pest or weed control at 500 g/ha: 500 g ai/ha
# In short: as §1
# ragweed = assay: Test A postemergence; format: in vivo, Ambrosia artemisiifolia; details: Ambrosia artemisiifolia, post-emergence, 240 h, read-out: Plant response rating, Ragweed; for pest or weed control at 125 g/ha: 125 g ai/ha; for pest or weed control at 500 g/ha: 500 g ai/ha
# In short: as §1
# horseweed = assay: Test A postemergence; format: in vivo, Erigeron canadensis; details: Erigeron canadensis, post-emergence, 240 h, read-out: Plant response rating, Horseweed; for pest or weed control at 125 g/ha: 125 g ai/ha; for pest or weed control at 500 g/ha: 500 g ai/ha
# In short: as §1
# sedge, umbrella = assay: Test B flooded paddy test; format: in vivo, Cyperus difformis; details: Cyperus difformis, 312 h; 250 g ai/ha, Flood, 13 days, 0 to 100 scale (0 no effect, 100 complete control); read-out: Plant response rating, Sedge, Umbrella
# In short: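 Two-leaf plants, 3 cm flood, in-water application, 13-day greenhouse hold, visual 0–100 rating vs untreated checks.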
# [7] = postemergence, 10 days, visual injury, 0 to 100 scale (0 no effect, 100 complete control)
SMILES,pest or weed control at 125 g/ha (blackgrass [1]),pest or weed control at 500 g/ha (blackgrass [1]),pest or weed control at 125 g/ha (goosegrass [2]),pest or weed control at 500 g/ha (goosegrass [2]),pest or weed control at 125 g/ha (kochia),pest or weed control at 500 g/ha (kochia),"pest or weed control at 125 g/ha (pigweed, palmer [3])","pest or weed control at 500 g/ha (pigweed, palmer [3])","pest or weed control at 125 g/ha (ryegrass, Italian)","pest or weed control at 500 g/ha (ryegrass, Italian)",plant injury at 125 g/ha (soybean),plant injury at 500 g/ha (soybean),pest or weed control at 125 g/ha (blackgrass [4]),pest or weed control at 500 g/ha (blackgrass [4]),pest or weed control at 125 g/ha (goosegrass [5]; [7]),"pest or weed control at 500 g/ha (goosegrass [5]; Postemergence, 0 to 100 scale)","pest or weed control at 125 g/ha (oat, wild; [7])","pest or weed control at 500 g/ha (oat, wild; Postemergence, 0 to 100 scale)",pest or weed control at 125 g/ha (horseweed; [7]),"pest or weed control at 250 g/ha (sedge, umbrella)",further results
"COc1ccc(-n2cncn2)cc1C(=O)N1C[C@H](C)Oc2c(C)cccc21 [Compound 63, [(2S)-2,3-Dihydro-2,8-dimethyl-4H-1,4-benzoxazin-4-yl][2-methoxy-5-(1H-1,2,4-triazol-1-yl)phenyl]methanone]",80%,90%,100%,100%,30%,40%,40%,90%,90%,100%,100%,100%,70%,90%,70%,80%,70%,80%,20%,98%,"pest or weed control at 125 g/ha (pigweed, palmer [6]; [7]): 30%; pest or weed control at 500 g/ha (pigweed, palmer [6]; Postemergence, 0 to 100 scale): 40%; pest or weed control at 125 g/ha (ragweed; [7]): 40%; pest or weed control at 500 g/ha (ragweed; Postemergence, 0 to 100 scale): 40%; pest or weed control at 500 g/ha (horseweed; Postemergence, 0 to 100 scale): 40%"
"C#Cc1ncn(-c2cccc(C(=O)N3C[C@H](C)Oc4c(C)cccc43)c2)n1 [Compound 64, [(2S)-2,3-Dihydro-2,8-dimethyl-4H-1,4-benzoxazin-4-yl][3-(3-ethynyl-1H-1,2,4-triazol-1-yl)phenyl]methanone]",80%,90%,60%,100%,80%,90%,40%,100%,90%,100%,20%,30%,40%,70%,10%,30%,50%,70%,0%,75%,"pest or weed control at 125 g/ha (pigweed, palmer [6]; [7]): 30%; pest or weed control at 500 g/ha (pigweed, palmer [6]; Postemergence, 0 to 100 scale): 50%; pest or weed control at 125 g/ha (ragweed; [7]): 0%; pest or weed control at 500 g/ha (ragweed; Postemergence, 0 to 100 scale): 40%; pest or weed control at 500 g/ha (horseweed; Postemergence, 0 to 100 scale): 40%"
"Cc1ccc(-n2cnc(C(C)C)n2)cc1C(=O)N1C[C@H](C)Oc2c(Cl)cccc21 [Compound 73, [(2S)-8-Chloro-2,3-dihydro-2-methyl-4H-1,4-benzoxazin-4-yl][2-methyl-5-[3-(1-methylethyl)-1H-1,2,4-triazol-1-yl]phenyl]methanone]",70%,90%,100%,100%,100%,100%,100%,100%,90%,100%,60%,100%,90%,90%,20%,–,–,–,30%,70%,"pest or weed control at 500 g/ha (goosegrass [5]; [7]): 60%; pest or weed control at 500 g/ha (oat, wild; [7]): 80%; pest or weed control at 500 g/ha (pigweed, palmer [6]; [7]): 90%; pest or weed control at 500 g/ha (ragweed; [7]): 80%; pest or weed control at 500 g/ha (horseweed; [7]): 50%"
